# pIC50: −log10 of the molar value.
# How the values were obtained:
# Staphylococcus aureus = assay: Antibacterial activity against Staphylococcus aureus UC76 SA1 by micro-broth method; format: functional
# Streptococcus pneumoniae = assay: Antibacterial activity against Streptococcus pneumoniae SV1 SP3 by micro-broth method; format: functional
# Streptococcus pyogenes = assay: Antibacterial activity against Streptococcus pyogenes C203 SP1-1 by micro-broth method; format: functional
# Enterococcus faecalis = assay: Antibacterial activity against Enterococcus faecalis MG2 EF1 by micro-broth method; format: functional
# Escherichia coli = assay: Inhibition of transcription and translation activity in Escherichia coli by luciferase reporter assay; format: functional, organism-based
# Haemophilus influenzae = assay: Antibacterial activity against Heamophilus influenzae HI3542 by microbroth method; format: functional
# Moraxella catarrhalis = assay: Antibacterial activity against Moraxella catarrhalis BC-3531 by micro-broth method; format: functional
Structure (SMILES),MIC (Staphylococcus aureus) [µg/mL],MIC (Streptococcus pneumoniae) [µg/mL],MIC (Streptococcus pyogenes) [µg/mL],MIC (Enterococcus faecalis) [µg/mL],pIC50 (Escherichia coli),MIC (Haemophilus influenzae) [µg/mL],MIC (Moraxella catarrhalis) [µg/mL]
CC(=O)NC[C@H]1CN(c2ccc3c(c2)CCCCC3=O)C(=O)O1,1,0.5,0.5,2,,,
CC(=O)NC[C@H]1CN(c2ccc3c(c2)CCCc2c(-c4cscn4)n[nH]c2-3)C(=O)O1,1,0.125,1,0.5,5.96,2,1
CC(=O)NC[C@H]1CN(c2ccc3c(c2)CCCc2c(-c4nnc(-c5ccccc5)o4)n[nH]c2-3)C(=O)O1,> 64,0.25,0.25,> 64,,16,> 64
CC(=O)NC[C@H]1CN(c2ccc3c(c2)CCCc2cn[nH]c2-3)C(=O)O1,0.5,0.25,0.125,0.25,,2,2
O=C(NC[C@H]1CN(c2ccc3c(c2)CCCc2c(-c4ccno4)n[nH]c2-3)C(=O)O1)c1ccno1,1,0.5,0.5,1,4.77,32,4
CC(=O)NC[C@H]1CN(c2ccc3c(c2)CCCc2c(-c4cc5ccccc5o4)n[nH]c2-3)C(=O)O1,2,0.5,0.5,0.5,< 4.51,> 64,8
CC(=O)NC[C@H]1CN(c2ccc3c(c2)CCCc2c(-c4nc5ccccc5s4)n[nH]c2-3)C(=O)O1,> 64,> 64,> 64,> 64,,> 64,> 64
CC(=O)NC[C@H]1CN(c2cc(F)c3c(c2)CCCc2c(-c4ccco4)n[nH]c2-3)C(=O)O1,2,1,1,2,5.24,64,8
O=C(NC[C@H]1CN(c2ccc3c(c2)CCCc2c(-c4ccoc4)n[nH]c2-3)C(=O)O1)c1ccoc1,2,1,1,1,5.46,8,4
CC(=O)NC[C@H]1CN(c2cc(F)c3c(c2)CCCc2c(-c4cc(C)n(C)n4)n[nH]c2-3)C(=O)O1,4,1,1,2,5.38,> 64,32
CCCC(=O)NC[C@H]1CN(c2ccc3c(c2)CCCc2c(CCC)n[nH]c2-3)C(=O)O1,2,1,1,2,5.25,> 64,8
Cc1cc(C(=O)NC[C@H]2CN(c3ccc4c(c3)CCCc3c(-c5cc(C)on5)n[nH]c3-4)C(=O)O2)no1,> 64,1,2,> 64,,> 64,> 64
O=C(NC[C@H]1CN(c2ccc3c(c2)CCCc2c(-c4cc5ccccc5o4)n[nH]c2-3)C(=O)O1)c1cc2ccccc2o1,32,8,4,32,< 4.60,> 64,> 64
Cc1cc(C(=O)NC[C@H]2CN(c3cc(F)c4c(c3)CCCc3c(-c5cc(C)on5)n[nH]c3-4)C(=O)O2)no1,> 64,> 64,> 64,> 64,4.94,> 64,> 64
Cc1cc(C(=O)NC[C@H]2CN(c3cc(F)c4c(c3)CCCc3c(-c5cc(C)n(C)n5)n[nH]c3-4)C(=O)O2)nn1C,> 64,> 64,> 64,> 64,< 4.60,> 64,> 64
NC[C@H]1CN(c2ccc3c(c2)CCCc2c(-c4ccno4)n[nH]c2-3)C(=O)O1,16,4,2,8,5.08,> 64,64
CCOC(=O)NC[C@H]1CN(c2ccc3c(c2)CCCc2c(-c4ccno4)n[nH]c2-3)C(=O)O1,1,0.5,0.5,0.5,5.74,> 64,4
O=C(NC[C@H]1CN(c2ccc3c(c2)CCCc2c(-c4ccno4)n[nH]c2-3)C(=O)O1)C1CC1,1,0.25,0.25,0.5,5.89,32,1
CC(=O)NC[C@H]1CN(c2ccc3c(c2)CCCc2c(-c4cc(C)n(C)n4)n[nH]c2-3)C(=O)O1,0.5,0.25,0.25,0.5,5.89,8,4
CC(=O)NC[C@H]1CN(c2ccc3c(c2)CCCc2c(-c4csc(-c5ccccc5)n4)n[nH]c2-3)C(=O)O1,8,0.5,1,8,< 4.94,> 64,> 64
CC(=O)NC[C@H]1CN(c2ccc3c(c2)CCCc2c(-c4snnc4C)n[nH]c2-3)C(=O)O1,0.5,0.25,0.125,0.5,6.15,8,2
CC(=O)NC[C@H]1CN(c2cc(F)c3c(c2)CCCc2c(-c4ccno4)n[nH]c2-3)C(=O)O1,1,0.5,0.25,0.5,5.85,> 64,4
CC(=O)NC[C@H]1CN(c2cc(F)c3c(c2)CCCc2c(-c4cc(C)on4)n[nH]c2-3)C(=O)O1,1,0.5,0.5,0.5,5.68,> 64,4
O=C(NC[C@H]1CN(c2ccc3c(c2)CCCc2c(-c4ccno4)n[nH]c2-3)C(=O)O1)c1cccnc1,2,1,1,1,5.55,> 64,32
O=C(NC[C@H]1CN(c2ccc3c(c2)CCCc2c(-c4ccno4)n[nH]c2-3)C(=O)O1)C(F)F,0.5,0.25,0.125,0.5,6.68,4,1
CC(=O)NC[C@H]1CN(c2cc(F)c3c(c2)CCCc2cn[nH]c2-3)C(=O)O1,2,1,1,2,5.68,8,8
CC(C)C(=O)NC[C@H]1CN(c2ccc3c(c2)CCCc2c(C(C)C)n[nH]c2-3)C(=O)O1,8,4,4,8,5.10,64,32
O=C(NC[C@H]1CN(c2ccc3c(c2)CCCc2c(-c4cccnc4)n[nH]c2-3)C(=O)O1)c1cccnc1,8,1,2,4,5.43,> 64,16
CC(=O)NC[C@H]1CN(c2ccc(N3CCOCC3)c(F)c2)C(=O)O1 [LINEZOLID],,,2,,,,

# From ChEMBL document CHEMBL1140680 (Bioorg Med Chem Lett, 2007)
